From patent US10759751B2, “Substituted spirocyclohexanes as muscarinic M1 receptor and/or M4 receptor agonists” (Heptares Therapeutics Limited, priority 2016, dated 2020)
Read-outs that look alike come from different tables or passages of the source.

Columns and labels:
Assay type in all cases: cell-based
[1] = target: T1, human muscarinic M1 receptor (Homo sapiens, UniProt P11229); assay: Alphascreen Surefire phospho-ERK1/2 functional assay, M1; conditions: for EC50: CHO cells stably expressing human M1, phospho-ERK1/2, read-out: pEC50 M1 (converted); for Emax: CHO
T1 sequence (P11229 1-460): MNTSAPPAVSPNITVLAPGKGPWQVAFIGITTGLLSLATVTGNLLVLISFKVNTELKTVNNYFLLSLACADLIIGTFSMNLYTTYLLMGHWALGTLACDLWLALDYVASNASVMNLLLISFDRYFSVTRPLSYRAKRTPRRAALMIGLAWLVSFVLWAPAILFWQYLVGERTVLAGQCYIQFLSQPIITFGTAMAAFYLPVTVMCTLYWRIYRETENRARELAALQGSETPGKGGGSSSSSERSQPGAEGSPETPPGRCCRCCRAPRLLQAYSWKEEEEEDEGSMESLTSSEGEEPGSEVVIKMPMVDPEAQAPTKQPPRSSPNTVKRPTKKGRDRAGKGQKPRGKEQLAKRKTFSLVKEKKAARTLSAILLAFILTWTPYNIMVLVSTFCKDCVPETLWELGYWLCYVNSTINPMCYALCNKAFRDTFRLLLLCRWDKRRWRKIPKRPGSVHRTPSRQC
How it was run: (§1)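 Steps: plate CHO cells stably expressing the receptor in MEM-alpha with 10% dialysed FBS; starve overnight; add agonist for 5 min at 37 °C; lyse for 15 min; incubate the lysate with SureFire detection reagents for 2 h; read. The outputs are pEC50 and Emax.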

[2] = target: T2, human muscarinic M4 receptor (Homo sapiens, UniProt P08173); assay: Alphascreen Surefire phospho-ERK1/2 functional assay, M4; conditions: for EC50: CHO cells stably expressing human M4, phospho-ERK1/2, read-out: pEC50 M4 (converted); for Emax: CHO
T2 construct: expressed in transfected cells
T2 sequence (P08173 1-479): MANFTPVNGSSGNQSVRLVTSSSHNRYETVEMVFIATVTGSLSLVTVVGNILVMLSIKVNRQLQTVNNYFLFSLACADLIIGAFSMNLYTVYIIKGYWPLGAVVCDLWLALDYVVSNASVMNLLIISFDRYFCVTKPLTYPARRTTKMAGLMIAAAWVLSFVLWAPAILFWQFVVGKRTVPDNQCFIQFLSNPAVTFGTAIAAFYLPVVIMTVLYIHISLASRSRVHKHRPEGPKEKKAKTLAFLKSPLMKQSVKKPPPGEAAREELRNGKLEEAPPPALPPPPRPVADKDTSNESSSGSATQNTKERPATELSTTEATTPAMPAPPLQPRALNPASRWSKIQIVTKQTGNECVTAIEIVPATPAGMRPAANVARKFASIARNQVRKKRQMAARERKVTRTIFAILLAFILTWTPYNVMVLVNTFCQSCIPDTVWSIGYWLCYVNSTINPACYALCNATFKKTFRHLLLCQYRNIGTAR
How it was run: as §1

[3] = target: T3, human muscarinic M3 receptor (Homo sapiens, UniProt P20309); assay: Alphascreen Surefire phospho-ERK1/2 functional assay, M3; conditions: for EC50: CHO cells stably expressing human M3, phospho-ERK1/2, read-out: pEC50 M3 (converted); for Emax: CHO, read-out: M3 % Emax cf. ACh
T3 construct: expressed in transfected cells
How it was run: as §1

[4] = target: T4, human muscarinic M2 receptor (Homo sapiens, UniProt P08172); assay: Alphascreen Surefire phospho-ERK1/2 functional assay, M2; conditions: for EC50: CHO cells stably expressing human M2, phospho-ERK1/2, read-out: pEC50 M2 (converted); for Emax: CHO, read-out: M2 % Emax cf. ACh
T4 sequence (P08172 1-466): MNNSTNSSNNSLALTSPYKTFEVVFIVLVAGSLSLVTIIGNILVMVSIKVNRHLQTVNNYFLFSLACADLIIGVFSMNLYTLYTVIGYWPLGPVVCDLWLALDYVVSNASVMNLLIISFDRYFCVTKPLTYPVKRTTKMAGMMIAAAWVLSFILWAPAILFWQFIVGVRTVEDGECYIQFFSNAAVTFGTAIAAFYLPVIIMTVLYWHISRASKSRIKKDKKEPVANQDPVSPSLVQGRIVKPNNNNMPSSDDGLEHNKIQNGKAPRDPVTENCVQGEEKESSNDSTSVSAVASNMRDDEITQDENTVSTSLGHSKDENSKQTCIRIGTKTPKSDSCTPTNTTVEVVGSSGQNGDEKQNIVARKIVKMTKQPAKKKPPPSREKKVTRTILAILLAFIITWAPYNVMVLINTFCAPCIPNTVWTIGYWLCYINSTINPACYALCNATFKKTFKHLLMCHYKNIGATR
How it was run: as §1

[5] = read-out: M1 % Emax cf. ACh, CHO cells stably expressing human M1, Emax relative to ACh
[6] = read-out: M4 % Emax cf. ACh, CHO cells stably expressing human M4, Emax relative to ACh

T3 sequence (P20309 whole entry): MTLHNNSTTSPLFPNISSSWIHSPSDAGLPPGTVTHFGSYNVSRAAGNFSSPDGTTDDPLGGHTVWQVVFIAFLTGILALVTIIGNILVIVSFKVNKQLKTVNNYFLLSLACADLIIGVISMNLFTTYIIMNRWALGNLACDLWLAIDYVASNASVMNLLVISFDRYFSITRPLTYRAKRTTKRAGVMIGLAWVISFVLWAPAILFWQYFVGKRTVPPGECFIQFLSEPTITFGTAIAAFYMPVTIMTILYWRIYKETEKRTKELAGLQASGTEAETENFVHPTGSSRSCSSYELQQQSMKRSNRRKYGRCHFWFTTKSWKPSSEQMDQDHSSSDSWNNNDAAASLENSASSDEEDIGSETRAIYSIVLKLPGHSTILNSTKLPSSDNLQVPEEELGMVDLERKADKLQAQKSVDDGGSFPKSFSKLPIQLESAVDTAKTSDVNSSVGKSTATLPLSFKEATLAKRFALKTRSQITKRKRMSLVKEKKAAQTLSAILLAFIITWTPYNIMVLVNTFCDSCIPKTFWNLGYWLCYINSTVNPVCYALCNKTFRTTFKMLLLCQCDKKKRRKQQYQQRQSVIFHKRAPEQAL

Row | Structure (SMILES) | EC50 [1] [nM] | Emax [1, 5] [%] | EC50 [2] [nM] | Emax [2, 6] [%] | EC50 [3] [nM] | Emax [3] [%] | EC50 [4] [nM] | Emax [4] [%] | Emax ([1]; read-out: M1 % Emax cf. ACh) [%] | Emax ([2]; read-out: M4 % Emax cf. ACh) [%]
1 | COC(=O)N1CCCN(C2CCC(C#N)(c3ccccc3)CC2)CC1 (mixture of isomers) [3-28 mixture of isomers] | 776 | 116 | 245 | 91 | > 20000 | 7 | > 20000 | 15 | – | –
2 | CCOC(=O)N[C@H]1CCN(C2CCC3(CC2)C(=O)Nc2ncc(Cl)cc23)C1 (single isomer, unassigned) [2-17 isomer 1] | 56.2 | 48 | > 20000 | 18 | > 20000 | 7 | > 20000 | 7 | – | –
3 | Cc1ccc2c(c1)NC(=O)C21CCC(N2CCC[C@@H](c3nc(C)no3)C2)CC1 (single isomer, unassigned) [22-4 Isomer 1] | 79.4 | 76 | 219 | 39 | > 20000 | 17 | > 20000 | 20 | – | –
4 | CCOC(=O)N1CCC2(CCN(C3CCC(C#N)(c4ccccc4)CC3)CC2)C1 (single isomer, unassigned) [13-1 Isomer 2] | 0.447 | – | 0.145 | – | > 20000 | 7 | > 20000 | 21 | 121 | 121
5 | CCOC(=O)N[C@@H]1CCN(C2CCC(C#N)(c3ccccc3)CC2)C1 (single isomer, unassigned) [1-2 Isomer 2] | 209 | 102 | 741 | 52 | > 20000 | 1 | > 20000 | 23 | – | –
6 | CCOC(=O)N[C@H]1CCN(C2CCC(C#N)(c3cccc(F)c3)CC2)C1 (single isomer, unassigned) [1-3 Isomer 2] | 30.9 | 119 | > 20000 | 13 | > 20000 | 1 | > 20000 | 0 | – | –
7 | CCOC(=O)N1CCCN(C2CCC(c3nc(CC)c(C)[nH]3)CC2)CC1 (single isomer, unassigned) [5-1 Isomer 2] | 66.1 | 115 | 513 | 26 | > 20000 | 7 | > 20000 | 8 | – | –
8 | CCc1noc([C@H]2CC[C@@H](NC3CCC(C#N)(c4ccccc4)CC3)C2)n1 (single isomer, unassigned) [19-2 Isomer 2] | 191 | 118 | 138 | 96 | > 20000 | 5 | 2400 | 35 | – | –
9 | CCOC(=O)N(C)[C@@H]1CCN(C2CCC(C#N)(c3ccccc3)CC2)C1 (single isomer, unassigned) [1-21 Isomer 2] | 110 | – | > 20000 | – | > 20000 | 5 | > 20000 | 1 | 64 | 15
10 | CC#CCOC(=O)N1CCCN(C2CCC(C#N)(c3ccc(OC)cn3)CC2)CC1 (single isomer, unassigned) [3-32 Isomer 1] | 22.4 | 106 | 759 | 30 | > 20000 | 0 | > 20000 | 2 | – | –
11 | CCOC(=O)N1CCC2CN(C3CCC(C#N)(c4ccccc4)CC3)CC21 (single isomer, unassigned) [15-1 Isomer 2] | 155 | 117 | 145 | 21 | > 20000 | 6 | > 20000 | 14 | – | –
12 | CC#CCOC(=O)N1CCCN(C2CCC(C#N)(c3ccncc3)CC2)CC1 (single isomer, unassigned) [3-30 Isomer 1] | 295 | 104 | 229 | 72 | > 20000 | 0 | > 20000 | 6 | – | –

More lines, main results first:

Row | EC50 [1] [nM] | Emax [1, 5] [%] | EC50 [2] [nM] | Emax [2, 6] [%] | EC50 [3] [nM] | Emax [3] [%] | EC50 [4] [nM] | Emax [4] [%] | Structure (SMILES) | Emax ([1]; read-out: M1 % Emax cf. ACh) [%] | Emax ([2]; read-out: M4 % Emax cf. ACh) [%]
13 | 93.3 | 31 | 28.8 | 72 | > 20000 | 19 | > 20000 | 11 | CCc1noc(C2CC3(CCN(C4CCC5(CC4)C(=O)Nc4ccccc45)C3)C2)n1 (single isomer, unassigned) [26-3 Isomer 1] | – | –
14 | 11.5 | 139 | > 20000 | 7 | > 20000 | 2 | > 20000 | 27 | CCOC(=O)N1CCCN(C2CCC(C#N)(c3ccc(OCC)cn3)CC2)CC1 (single isomer, unassigned) [3-20 Isomer 2] | – | –
15 | 74.1 | 74 | > 20000 | 10 | > 20000 | 4 | > 20000 | 2 | CCOC(=O)N[C@H]1CCN(C2CCC3(CC2)C(=O)Nc2ccccc23)C1 (single isomer, unassigned) [2-1 isomer 1] | – | –
16 | 132 | 107 | 309 | 55 | > 20000 | 2 | > 20000 | 9 | CCOC(=O)N1CCCN(C2CCC3(CC2)C(=O)Nc2cc(OC)ccc23)CC1 (single isomer, unassigned) [4-11 isomer 2] | – | –
17 | 25.7 | 65 | 10.7 | 48 | > 20000 | 0 | > 20000 | 27 | CCOC(=O)N1CCC2(CCN(C3CCC4(CC3)C(=O)N(C(=O)OCC)c3ccccc34)CC2)C1 (single isomer, unassigned) [12-2 isomer 1] | – | –
18 | 9.77 | 101 | 63.1 | 85 | > 20000 | 35 | > 20000 | 38 | CCOC(=O)N1CCCN(C2CCC(C#N)(c3ccc(F)cc3)CC2)CC1 (mixture of isomers) [3-3 mixture of isomers] | – | –
19 | 58.9 | 129 | 53.7 | 49 | > 20000 | 12 | > 20000 | 0 | CCOC(=O)NCC1CCN(C2CCC(C#N)(c3ccccc3)CC2)CC1 (single isomer, unassigned) [6-2-Isomer 2] | – | –
20 | 9.55 | 105 | 100 | 62 | > 20000 | 38 | > 20000 | 11 | CCOC(=O)N1CCCN(C2CCC(C#N)(c3ccc(Cl)cc3)CC2)CC1 (mixture of isomers) [3-6 mixture of isomers] | – | –
21 | 7.76 | 49 | > 15800 | 5 | > 20000 | 15 | > 20000 | 13 | CCOC(=O)N[C@H]1CCN(C2CCC3(CC2)C(=O)Nc2ccc(C)cc23)C1 (single isomer, unassigned) [2-5 isomer 1] | – | –
